Data on three molecules can be found in ChEMBL document CHEMBL1128773, “Synthesis and pharmacological profile of FCE 28654: A water-soluble and injectable ACAT inhibitor” (Bioorg Med Chem Lett, 1995).

The structures appear in SMILES notation.

In assay [1] the target is T1, Sterol O-acyltransferase 1 (Rattus norvegicus) (UniProt O70536).
T1 sequence (whole entry): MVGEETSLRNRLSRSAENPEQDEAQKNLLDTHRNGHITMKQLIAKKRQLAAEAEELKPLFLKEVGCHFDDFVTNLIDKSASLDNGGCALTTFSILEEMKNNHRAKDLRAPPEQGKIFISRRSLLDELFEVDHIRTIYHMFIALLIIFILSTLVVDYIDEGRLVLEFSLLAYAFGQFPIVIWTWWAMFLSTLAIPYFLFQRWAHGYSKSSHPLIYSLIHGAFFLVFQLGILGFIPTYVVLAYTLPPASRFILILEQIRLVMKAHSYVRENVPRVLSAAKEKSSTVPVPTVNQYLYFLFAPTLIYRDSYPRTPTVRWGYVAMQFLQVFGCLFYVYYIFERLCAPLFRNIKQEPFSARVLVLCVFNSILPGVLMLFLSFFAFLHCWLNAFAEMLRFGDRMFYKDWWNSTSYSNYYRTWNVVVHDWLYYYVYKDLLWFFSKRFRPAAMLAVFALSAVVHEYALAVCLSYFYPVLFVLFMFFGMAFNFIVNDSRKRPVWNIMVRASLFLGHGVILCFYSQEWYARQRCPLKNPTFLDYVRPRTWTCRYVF
In words: (§1) Inhibition of microsomal acyl-CoA: cholesterol acyltransferase in the presence of plasma from rats administered orally with 100 mg/kg of the compound; pmoles [14C]-Cholesteryl oleate formed / mg protein / min incubation. Type of assay: organism-based. Further details: dose 100 mg/kg.

The test system of assay [2] is Rattus norvegicus. In words: Effect of single oral administration of 15 mg/kg of compound on triglycerides of hypercholesterolemic rats. Format: functional, organism-based. Further details: dose 15 mg/kg.
For assay [3], the system named is Rattus norvegicus. In words: Effect of single oral administration of 15 mg/kg of compound on phospholipids of hypercholesterolemic rats. Format: functional, organism-based. Further details: dose 15 mg/kg.
Assay [4] deals with Rattus norvegicus. In words: Effect of single oral administration of 15 mg/kg of compound on cholesterol esters of hypercholesterolemic rats. Format: functional, organism-based. Further details: dose 15 mg/kg.
The test system of assay [5] is Rattus norvegicus. In words: Effect of single oral administration of 15 mg/kg of compound on free cholesterol of hypercholesterolemic rats. Type of assay: functional, organism-based. Further details: dose 15 mg/kg.
The target in assay [6] is T2, Acyl-CoA:cholesterol acyltransferase (Oryctolagus cuniculus, UniProt Q95214).
T2 sequence (Q95214 whole entry): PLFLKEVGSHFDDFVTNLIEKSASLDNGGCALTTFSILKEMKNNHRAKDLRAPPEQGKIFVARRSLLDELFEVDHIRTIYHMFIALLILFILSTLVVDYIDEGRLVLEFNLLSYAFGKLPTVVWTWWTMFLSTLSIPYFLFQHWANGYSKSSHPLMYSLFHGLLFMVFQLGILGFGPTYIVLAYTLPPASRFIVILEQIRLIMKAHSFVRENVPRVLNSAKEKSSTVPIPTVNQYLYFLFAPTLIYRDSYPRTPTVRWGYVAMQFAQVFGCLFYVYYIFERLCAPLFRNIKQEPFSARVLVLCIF
In words: Inhibitory activity against acyl-CoA: cholesterol acyltransferase (ACAT) in microsomes from cholesterol-fed rabbit thoracic aorta.

The target in assay [7] is T2, Acyl-CoA:cholesterol acyltransferase. In words: Inhibitory activity against acyl-CoA: cholesterol acyltransferase (ACAT) in microsomes from cholesterol-fed rabbit intestinal mucosa.
Assay [8] can be described thus: Ratio of effect of single oral administration of 15 mg/kg of compound on liver free cholesterol/cholesterol esters of hypercholesterolemic rats. Format: functional.
Assay [9] can be described thus: Ratio of effect of single iv administration of compound at dose 10 mg/kg on liver free cholesterol/cholesterol esters of hypercholesterolemic mice. Format: functional.
For assay [10], the system named is Mus musculus. In words: Effect of single oral administration of 10 mg/kg of compound on free cholesterol of hypercholesterolemic mice. Type of assay: functional, organism-based. Further details: dose 10 mg/kg.
The subject of assay [11] is Mus musculus. In words: Effect of single oral administration of 10 mg/kg of compound on phospholipids of hypercholesterolemic mice. Type of assay: functional, organism-based. Further details: dose 10 mg/kg.
Assay [12] has as its target T1, Sterol O-acyltransferase 1 (Rattus norvegicus). Described as §1. Format: functional, organism-based. Further details: dose 100 mg/kg.
Assay [13] concerns Mus musculus. In words: Effect of single oral administration of 10 mg/kg of compound on cholesterol esters of hypercholesterolemic mice. Format: functional, organism-based. Further details: dose 10 mg/kg.
Assay [14] has as its system Rattus norvegicus. In words: Effect of single oral administration of 2 mg/kg of compound on cholesterol esters of hypercholesterolemic rats. Type of assay: functional, organism-based. Further details: dose 2 mg/kg.
Assay [15] has as its system Mus musculus. In words: Effect of single oral administration of 10 mg/kg of compound on triglycerides of hypercholesterolemic mice. Format: functional, organism-based. Further details: dose 10 mg/kg.
The test system of assay [16] is Rattus norvegicus. In words: Effect of single oral administration of 2 mg/kg of compound on phospholipids of hypercholesterolemic rats. Type of assay: functional, organism-based. Further details: dose 2 mg/kg.
The nature of assay [17]: Ratio of effect of single iv administration of compound at dose 2 mg/kg on liver free cholesterol/cholesterol esters of hypercholesterolemic rats. Format: functional.
Assay [18] concerns Rattus norvegicus. In words: Effect of single oral administration of 2 mg/kg of compound on free cholesterol of hypercholesterolemic rats. Format: functional, organism-based. Further details: dose 2 mg/kg.
The test system of assay [19] is Rattus norvegicus. In words: Effect of single oral administration of 2 mg/kg of compound on triglycerides of hypercholesterolemic rats. Type of assay: functional, organism-based. Further details: dose 2 mg/kg.

`CC(C)c1cccc(C(C)C)c1NC(=O)NCC1(c2ccccc2)O[C@H](C)[C@@H](C)O1`: in assay [1], the Activity was determined as 286. For the same molecule, the Plasma lipids came out at 76 mg/dL in assay [2], 77 mg/dL in assay [3], 57 mg/dL in [4] and 18 mg/dL in assay [5]. For the same molecule, the IC50 – broadly, the midpoint of a concentration-inhibition curve – amounted to 24.2 nM in assay [6] and 27 nM in assay [7].
For the molecule `CC(C)c1cccc(C(C)C)c1NC(=O)NCC1(c2ccc(O)cc2)O[C@H](C)[C@@H](C)O1`, the Plasma lipids came to 126 mg/dL in assay [2], 96 mg/dL in assay [3], 75 mg/dL in assay [4] and 33 mg/dL in assay [5].
Consider `CC(C)c1cccc(C(C)C)c1NC(=O)NCC1(c2ccc(OP(=O)(O)O)cc2)O[C@H](C)[C@@H](C)O1`, for which the Plasma lipids in assay [2] was 98 mg/dL; in assay [3], 84 mg/dL; in assay [10] it was 26 mg/dL; in assay [11], 142 mg/dL; in assay [4], 73 mg/dL; in assay [13] it was 79 mg/dL. Besides, the Plasma lipids stood at 134 mg/dL in assay [14]; 28 mg/dL in [5]; 71 mg/dL in assay [15]; 138 mg/dL in [16]; 39 mg/dL in [18]; 126 mg/dL in [19]. Also, the Ratio in assay [8] stood at 0.38; in [9] it was 0.316; in assay [17], 0.188. For the same molecule, the Activity in [12] was determined as 148. The IC50 amounted to 2550 nM in assay [6] and 1080 nM in assay [7].
